# From BindingDB's records for doi:10.1016/j.ejmech.2016.01.043 (Yonsei University, 2016)
# Molecular target: 5-hydroxytryptamine receptor 7 (Homo sapiens, UniProt P34969)
# Test: Displacement of [3H]LSD from 5-HT7 receptor (unknown origin) expressed in CHO-K1 cells by liquid scintillation counting method
# Chain of 5-hydroxytryptamine receptor 7 (P34969 whole entry): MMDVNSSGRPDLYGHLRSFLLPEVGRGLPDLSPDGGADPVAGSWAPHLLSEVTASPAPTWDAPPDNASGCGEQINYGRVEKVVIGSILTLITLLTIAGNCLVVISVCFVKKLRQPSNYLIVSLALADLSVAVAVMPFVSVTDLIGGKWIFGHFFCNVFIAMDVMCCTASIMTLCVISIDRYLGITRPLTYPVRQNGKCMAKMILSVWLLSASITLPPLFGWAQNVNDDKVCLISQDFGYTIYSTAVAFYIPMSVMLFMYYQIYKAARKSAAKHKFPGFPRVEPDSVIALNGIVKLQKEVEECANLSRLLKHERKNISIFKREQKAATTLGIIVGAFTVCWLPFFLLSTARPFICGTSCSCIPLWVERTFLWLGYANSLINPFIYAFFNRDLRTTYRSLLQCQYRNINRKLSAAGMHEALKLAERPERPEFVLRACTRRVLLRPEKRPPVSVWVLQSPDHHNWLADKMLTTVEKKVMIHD
structure (smiles),measurement,value
CC1CCCN(CCCCC(=O)n2c3ccccc3c3ccccc32)C1 (stereo unspecified),Ki,794 nM
